Measured values from PubChem BioAssay (NCI).
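Five concentrations, 48 hours, 96-well plates. TGI is the concentration that stops growth completely.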

Key:
Test in all cases: NCI anticancer screen, dose series, 48 h
[1] = system: CCRF-CEM leukemia
[2] = system: HCT-116 colon
[3] = system: HCT-15 colon
[4] = system: HS 578T breast
[5] = system: OVCAR-3 ovarian
[6] = system: PC-3 prostate
[7] = system: SF-295 CNS
[8] = system: SNB-19 CNS
[9] = system: SNB-75 CNS
[10] = system: UO-31 renal
[11] = system: LOX IMVI melanoma
[12] = system: OVCAR-4 ovarian
[13] = system: SK-MEL-2 melanoma

c1ccc2cc3c(cc2c1)nc1ccccn13
TGI [1]: > 100 µM
TGI [2]: > 100 µM
TGI [3]: > 100 µM
TGI [4]: > 100 µM
TGI [5]: > 100 µM
TGI [6]: > 100 µM
TGI [7]: > 100 µM
TGI [8]: > 100 µM
TGI [9]: > 100 µM
TGI [10]: > 100 µM

COc1ccccc1CNC(=O)[C@H](Cc1ccc(O)cn1)NC(C)=O
TGI [1]: > 100 µM
TGI [2]: > 100 µM
TGI [3]: > 100 µM
TGI [4]: > 100 µM
TGI [11]: > 100 µM
TGI [5]: > 100 µM
TGI [12]: > 100 µM
TGI [6]: > 100 µM
TGI [7]: > 100 µM
TGI [13]: > 100 µM
TGI [8]: > 100 µM
TGI [10]: > 100 µM

C[C@]12CC[C@H](O)CC1=CC[C@@H]1C2CC[C@]2(C)Nc3c(cnn3-c3ccc(F)cc3)CC12 (stereo partly drawn)
TGI [1]: > 100 µM
TGI [2]: > 100 µM
TGI [3]: > 100 µM
TGI [4]: 22.2 µM
TGI [11]: > 100 µM
TGI [5]: > 100 µM
TGI [12]: 55.9 µM
TGI [6]: > 100 µM
TGI [7]: 6.82 µM
TGI [8]: > 100 µM
TGI [9]: 16.5 µM
TGI [10]: > 92.4 µM

CCc1n[nH]c(=O)n1CCO
TGI [2]: > 100 µM
TGI [3]: > 100 µM
TGI [11]: > 100 µM
TGI [5]: > 100 µM
TGI [12]: > 100 µM
TGI [6]: > 100 µM
TGI [7]: > 100 µM
TGI [13]: > 100 µM
TGI [8]: > 100 µM
TGI [10]: > 100 µM

COP(=O)(OC)/C(=C\c1cn(C(c2ccccc2)(c2ccccc2)c2ccccc2)cn1)NC(C)=O
TGI [1]: > 100 µM
TGI [2]: > 100 µM
TGI [3]: > 100 µM
TGI [4]: > 100 µM
TGI [11]: > 100 µM
TGI [5]: > 100 µM
TGI [12]: > 100 µM
TGI [6]: > 100 µM
TGI [7]: > 100 µM
TGI [8]: > 100 µM
TGI [9]: > 100 µM
TGI [10]: > 100 µM

N#Cc1nc(COCCOCc2ccc(F)cc2)oc1N
TGI [1]: > 100 µM
TGI [2]: > 100 µM
TGI [3]: > 100 µM
TGI [11]: > 100 µM
TGI [5]: > 100 µM
TGI [12]: > 100 µM
TGI [6]: > 100 µM
TGI [7]: > 100 µM
TGI [13]: > 100 µM
TGI [9]: > 100 µM
TGI [10]: > 100 µM

O=C(/C=C(\O)c1ccccc1)c1cc(-c2ccccc2)n(-c2ccccc2)n1
TGI [1]: 7.16 µM
TGI [2]: > 100 µM
TGI [3]: > 100 µM
TGI [4]: > 100 µM
TGI [11]: > 100 µM
TGI [5]: > 100 µM
TGI [6]: > 100 µM
TGI [7]: > 100 µM
TGI [13]: > 100 µM
TGI [8]: > 100 µM
TGI [10]: 39.9 µM
